Laboratory results taken from patent publication US7932086B2, “Commercially viable process for in vitro mass culture of Jatropha curcas” (Reliance Life Sciences Pvt. Ltd., priority 2007, dated 2011).

Tested on: Jatropha curcas elongated shoots
Assay: in vitro rooting of elongated shoots
Format: cell-based
Details: 4.9 μM in half strength Murashige & Skoog Basal Medium

## O=C(O)CCCc1c[nH]c2ccccc12 [IBA, Indole-3-butyric acid]
  root formation: well-formed roots
